Assay results: patent US20130165679A1, “ALPHA-GLUCOSIDASE INHIBITOR” (priority 2011, published 2013)
≈ marks a conversion by molar mass, not a printed value. Where two headings read alike, the source gives them in different places.

System: α-glucosidase
Format: biochemical
Conditions: for IC50 (concentration to obtain 50% enzyme inhibitory activity): obtained by interpolation from inhibition rate data
Experimental: Examples of unsaturated fatty acid used to analyze its enzyme inhibitive activity as a α-glucosidase inhibitor include oleic acid (Ω9), linoleic acid (Ω6), and α-linolenic acid (Ω3).
In the analytical method, p-nitrophenyl-α-D-glucopyranoside was used as a substrate. The absorbance was measured by spectrophotometry to determine the α-glucosidase inhibition activity of samples (Apostolidis E. Lee C M. In vitro potential of Ascophyllum nodosam phenolic antioxidant-mediated alpha-glucosidase and alpha-amylase inhibition. Journal of Food Science 2010, 75:H97-102; Kang W Y, Song Y L, Zhang L. α-Glucosidase inhibitory and antioxidant properties and antidiabetic activity of Hypericum ascyron L. Medicinal Chemistry Research 2011.20:809-816).
To a 1.5 ml eppendorf tube containing 0.05 ml of sample solution (in 5% methanol), 0.1 ml of α-glucosidase solution (2 U/ml; in 100 mM phosphate buffer, pH 6.9) was added. The mixture was incubated in 37° C. water bath for 10 min, and then 0.05 ml of 5 mM p-nitrophenyl-α-D-glucopyranoside (in 100 mM phosphate buffer, pH 6.9) was added and mixed homogeneously. The mixture was incubated in 37° C. water bath for 10 min, and then in boiling water for 5 min to stop the reaction. After the addition of 1 ml of deionized water, the absorbance at 405 nm was measured by spectrophotometer (U-1800, Hitachi. Tokyo, Japan). • 1. Determining the α-glucosidase inhibition activity of oleic acid (as the α-glucosidase inhibitor): • A. Experimental group: enzyme+substrate+unsaturated fat acid (oleic acid) • B. Control: enzyme+substrate+buffer • C. Background: buffer+buffer+unsaturated fatty acid (oleic acid) • Calculation of the rate of inhibition:
Inhibition rate %=[ODControl−(ODExperimental group−ODBackground)]/ODControl×100%

| Inhibition rate (%) (0.0125 mg/ml) | Inhibition rate (%) (0.0250 mg/ml) | Inhibition rate (%) (0.0500 mg/ml) | IC50 (concentration to obtain 50% enzyme inhibitory activity) | Inhibition rate (%) (0.01 mg/ml) | Inhibition rate (%) (0.02 mg/ml) | Inhibition rate (%) (0.04 mg/ml) | Inhibition rate (%) (0.06 mg/ml) | Structure (SMILES) |
| --- | --- | --- | --- | --- | --- | --- | --- | --- |
| 2.99 ± 0.36% | 30.10 ± 0.54% | 91.60 ± 0.62% | 33 µg/mL (≈ 118 µM) | – | – | – | – | CCCCC/C=C\C/C=C\CCCCCCCC(=O)O [linoleic acid] |
| – | – | – | 22 µg/mL (≈ 77.9 µM) | 11.8 ± 0.99% | 52.2 ± 0.55% | 96.7 ± 0.06% | – | CCCCCCCC/C=C\CCCCCCCC(=O)O [oleic acid] |
| – | – | 57.5 ± 2.39% | 47 µg/mL (≈ 169 µM) | – | – | 31.6 ± 1.80% | 81.0 ± 0.13% | CC/C=C\C/C=C\C/C=C\CCCCCCCC(=O)O [α-linolenic acid] |
